Laboratory results taken from patent US4605413A, “Stimulation of chemotaxis by chemotactic peptides” (The University of Alabama at Birmingham, priority 1983, dated 1986).
No end group written: not given here.

Key:
Assay type in all cases: cell-based
[1] = tested on: fibroblasts; test: Fibroblast chemotaxis in multi-blind well apparatus; details: for chemotactic activity of isolated hexapeptides: qualitative; for chemotactic activity in presence of antibody to elastin: polyclonal antibody to elastin present, FIG. 4; for Fibroblast Migration, Net Cells/HPF ± SEM: N = 15
Procedure: (§1) The chemotactic response of fibroblasts to a hexapeptide of the invention was measured using the techniques described in Senior et al, J. Clin. Invest., 70, 614-618 (1982), which is herein incorporated by reference. Although the actual conditions used may vary slightly, the following generally describes the experimental conditions.
(§2) Chemotaxis was determined in a multi-blind well apparatus using a polycarbonate membrane with 8-μm pores on top of a cellulose nitrate membrane having 0.45-μm pores to separate each well into upper and lower compartments. The lower compartment was filled with 240 μl of solution to be assayed (or control medium) and then covered with the membranes. In the upper compartment was placed 350 μl of cell suspension containing 1.2×10^5 cells/ml.
(§3) After both compartments of the wells were filled, the chemotaxis apparatus was placed in a humidified incubator at 37° C. in an atmosphere of 5% CO2 -95% air for several hours. The apparatus was then disassembled, and each membrane pair was removed and stained with hematoxylin. Cell migration was determined under high dry magnification (×400) by counting the cells that had moved to the interface between the two membranes and those on the lower membrane. Several high power fields (H.P.F.) were counted for each membrane. Multiple determinations of each experiment were conducted, and the results pooled. Cell migration is expressed as the net number of cells per H.P.F.; i.e., the number of cells per H.P.F. minus the number of cells per H.P.F. that migrated in response to control medium.

[2] = tested on: young fibroblasts (not yet synthesizing elastin); test: Chemotaxis of young (immature) fibroblasts before and after induced differentiation; details: FIG. 2
Procedure: as §1, §2
as §3, with “The apparatus was then disassembled, and each membrane pair was removed and stained with hematoxylin.” left out, “Multiple determinations of each experiment were conducted, and the results pooled.” left out

[3] = tested on: Monocytes; test: Desensitization of monocyte chemotaxis by pre-exposure to elastin peptides; details: for % CONTROL: desensitized vs control; for Monocyte chemotaxis, CONTROL: no pre-exposure; for Monocyte chemotaxis, CONTROL / Monocyte chemotaxis, DESENSITIZED: mean of 15; for Monocyte chemotaxis, DESENSITIZED: pre-exposed to elastin peptides; for effect of pre-exposure to elastin-derived peptide fragments on monocyte chemotactic response: monocytes pre-exposed to elastin-derived peptide fragments, qualitative
[4] = FIG. 1, dose response of fibroblasts
[5] = chemoattractant at concentration for maximum chemotaxis

H-VAPGVG-OH [H--VAPGVG--OH]
chemotactic activity of isolated hexapeptides [1]: chemotactic activity is also seen

platelet-derived growth factor [PDGF]
Fibroblast Migration, Positive Control ([1]; PDGF, 10^-9 M): 31 Cells/HPF
chemotactic activity in presence of antibody to elastin [1]: has no effect on the chemotactic activity
migration of young fibroblasts [2]: have the capacity to migrate

H-APGVGV-OH [H--APGVGV--OH]
chemotactic activity of isolated hexapeptides [1]: chemotactic activity is also seen

H-GVGVAP-OH [H--GVGVAP--OH]
chemotactic activity of isolated hexapeptides [1]: chemotactic activity is also seen

VGVAPG [VGVAPG, VAL--GLY--VAL--ALA--PRO--GLY]
concentration of greatest chemotactic activity [1, 4]: 10^-9 M
concentrations at which chemotactic response was seen [1, 4]: higher than 10^-11 M
nature of fibroblast response (chemotaxis vs random movement) ([1]; Table 1 gradient analysis): chemotaxis and not simply stimulation of random movement
Fibroblast Migration, Net Cells/HPF ± SEM ([1]; VGVAPG lower compartment 0, upper compartment 10^-8 M): -2 ± 0.5 Net Cells/HPF
Fibroblast Migration, Net Cells/HPF ± SEM ([1]; VGVAPG lower compartment 0, upper compartment 10^-9 M): 0 ± 0.7 Net Cells/HPF
Fibroblast Migration, Net Cells/HPF ± SEM ([1]; VGVAPG lower compartment 0, upper compartment 10^-10 M): 1 ± 0.6 Net Cells/HPF
Fibroblast Migration, Net Cells/HPF ± SEM ([1]; VGVAPG lower compartment 10^-8 M, upper compartment 0): 27 ± 1.7 Net Cells/HPF
Fibroblast Migration, Net Cells/HPF ± SEM ([1]; VGVAPG lower compartment 10^-8 M, upper compartment 10^-8 M): 1 ± 0.7 Net Cells/HPF
Fibroblast Migration, Net Cells/HPF ± SEM ([1]; VGVAPG lower compartment 10^-8 M, upper compartment 10^-9 M): 3 ± 0.6 Net Cells/HPF
Fibroblast Migration, Net Cells/HPF ± SEM ([1]; VGVAPG lower compartment 10^-8 M, upper compartment 10^-10 M): 13 ± 1.8 Net Cells/HPF
Fibroblast Migration, Net Cells/HPF ± SEM ([1]; VGVAPG lower compartment 10^-9 M, upper compartment 0): 15 ± 1.7 Net Cells/HPF
Fibroblast Migration, Net Cells/HPF ± SEM ([1]; VGVAPG lower compartment 10^-9 M, upper compartment 10^-8 M): 0 ± 0.6 Net Cells/HPF
Fibroblast Migration, Net Cells/HPF ± SEM ([1]; VGVAPG lower compartment 10^-9 M, upper compartment 10^-9 M): 0 ± 0.4 Net Cells/HPF
Fibroblast Migration, Net Cells/HPF ± SEM ([1]; VGVAPG lower compartment 10^-9 M, upper compartment 10^-10 M): 7 ± 1.3 Net Cells/HPF
Fibroblast Migration, Net Cells/HPF ± SEM ([1]; VGVAPG lower compartment 10^-10 M, upper compartment 0): 4 ± 1.0 Net Cells/HPF
Fibroblast Migration, Net Cells/HPF ± SEM ([1]; VGVAPG lower compartment 10^-10 M, upper compartment 10^-8 M): 1 ± 1.0 Net Cells/HPF
Fibroblast Migration, Net Cells/HPF ± SEM ([1]; VGVAPG lower compartment 10^-10 M, upper compartment 10^-9 M): -3 ± 0.4 Net Cells/HPF
Fibroblast Migration, Net Cells/HPF ± SEM ([1]; VGVAPG lower compartment 10^-10 M, upper compartment 10^-10 M): 2 ± 0.7 Net Cells/HPF
chemotactic activity of isolated hexapeptides [1]: most chemotactic of the isolated hexapeptides
chemotactic activity in presence of antibody to elastin [1]: blocks the chemotactic activity
migration of young fibroblasts [2]: do not migrate
% CONTROL ([3]; chemoattractant 10^-8 M): 0%
Monocyte chemotaxis, CONTROL ([3]; chemoattractant 10^-8 M): 70 Cells per high power field
Monocyte chemotaxis, DESENSITIZED ([3]; chemoattractant 10^-8 M): -4 Cells per high power field
% CONTROL ([3]; chemoattractant 10^-9 M): 0%
Monocyte chemotaxis, CONTROL ([3]; chemoattractant 10^-9 M): 42 Cells per high power field
Monocyte chemotaxis, DESENSITIZED ([3]; chemoattractant 10^-9 M): -2 Cells per high power field
effect of pre-exposure to elastin-derived peptide fragments on monocyte chemotactic response [3]: no longer show chemotaxis

H-PGVGVA-OH [H--PGVGVA--OH]
chemotactic activity of isolated hexapeptides [1]: chemotactic activity is also seen

H-GVAPGV-OH [H--GVAPGV--OH]
chemotactic activity of isolated hexapeptides [1]: chemotactic activity is also seen

CSCC[C@H](NC=O)C(=O)N[C@@H](CC(C)C)C(=O)N[C@@H](Cc1ccccc1)C(=O)O [FMLP, formylmethionylleucylphenylalanine, reference compound]
% CONTROL ([3]; chemoattractant 10^-8 M): 77%
Monocyte chemotaxis, CONTROL ([3]; chemoattractant 10^-8 M): 100 Cells per high power field
Monocyte chemotaxis, DESENSITIZED ([3]; chemoattractant 10^-8 M): 77 Cells per high power field
% CONTROL ([3]; chemoattractant 10^-9 M): 100%
Monocyte chemotaxis, CONTROL ([3]; chemoattractant 10^-9 M): 45 Cells per high power field
Monocyte chemotaxis, DESENSITIZED ([3]; chemoattractant 10^-9 M): 45 Cells per high power field
effect of pre-exposure to elastin-derived peptide fragments on monocyte chemotactic response [3]: pre-exposure has no effect on response

B1: C5A: activity derived from the fifth component of complement (C5a) (protein, UniProt P01031 678-751, looked up)
C5a anaphylatoxin: TLQKKIEEIAAKYKHSVVKKCCYDGACVNNDETCEQRAARISLGPRCIKAFTECCVVASQLRANISHKDMQLGR
modifications: C5a anaphylatoxin
% CONTROL [3, 5]: 100%
Monocyte chemotaxis, CONTROL [3, 5]: 102 Cells per high power field
Monocyte chemotaxis, DESENSITIZED [3, 5]: 102 Cells per high power field
effect of pre-exposure to elastin-derived peptide fragments on monocyte chemotactic response [3]: pre-exposure has no effect on response
